In US12441708B2, “Cereblon ligands and bifunctional compounds comprising the same” (Arvinas Operations, Inc., priority 2017, dated 2025):
Like-named read-outs stand apart in the source and are kept apart here.

Legend:
estrogen receptor = assay: ERE luciferase assay in T47D-KBluc cells; format: cell-based; conditions: Homo sapiens, 24 hours, read-out: ER Target Engagement IC50
Description: 1. ERE Luciferase Assay for Compounds in Table 2
T47D-1(Bluc cells (ATCC® ECRL 2 65, T47D human breast cancer cells stably transfected with estrogen responsive element/promoter/luciferase reporter gene) were seeded into 96-well white opaque plates in IR: PM growth medium supplemented with 10% fetal bovine serum (FBS) and allowed to adhere overnight in a 37° C. humidified incubator. The following day, cells were treated with PROTACs in a 12-point concentration curve (top final concentration of 300 nM with subsequent concentrations being 3-fold less with […] being the lowest concentration in the assay). Each PROTAC was tested independently in two experiments on 96-well plates. After 24 hours, media was removed and lysis buffer was added to the wells. Following lysis, Bright-Glo™ Luciferase Assay Substrate (Promega, Madison WI) was added and the luciferase activity was measured using a Cytation 3 plate reader (BioTek™, Winooski, VT). Each compound was assayed in duplicate and the activity was calculated as […] using GraphPad Prism software (San Diego, CA).

[1] = biological target: estrogen receptor-alpha (ERα) (Homo sapiens (Human), UniProt P03372); assay: Estrogen receptor-alpha (ERα) degradation assay in MCF7 cells (In-Cell Western / western blot); format: cell-based; conditions: % degraded, read-out: ER Degradation Dmax
Sequence of estrogen receptor-alpha (ERα) (P03372 whole entry): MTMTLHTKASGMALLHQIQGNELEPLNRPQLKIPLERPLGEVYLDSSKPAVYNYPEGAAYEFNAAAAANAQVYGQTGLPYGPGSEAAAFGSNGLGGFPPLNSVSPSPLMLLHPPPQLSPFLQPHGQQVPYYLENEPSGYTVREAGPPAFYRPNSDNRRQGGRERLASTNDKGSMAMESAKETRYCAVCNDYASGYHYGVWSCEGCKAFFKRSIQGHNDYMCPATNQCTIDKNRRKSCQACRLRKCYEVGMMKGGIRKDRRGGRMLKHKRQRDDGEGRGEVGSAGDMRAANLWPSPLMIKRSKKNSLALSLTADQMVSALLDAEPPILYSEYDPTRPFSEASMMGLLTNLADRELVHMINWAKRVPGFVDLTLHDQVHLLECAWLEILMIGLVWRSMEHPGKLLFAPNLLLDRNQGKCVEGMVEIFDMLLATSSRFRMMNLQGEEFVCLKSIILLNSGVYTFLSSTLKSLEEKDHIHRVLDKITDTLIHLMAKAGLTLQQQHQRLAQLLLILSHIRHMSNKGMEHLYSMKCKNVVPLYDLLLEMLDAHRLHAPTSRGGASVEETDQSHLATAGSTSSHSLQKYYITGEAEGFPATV
Description: 2. Estrogen Receptor-Alpha (ERα) Degradation Assay in MCF-7 Cells Using Western Blot Method for Table 5
The exemplary novel ERα degraders were assessed for their activity in degrading ERα in MCF-7 cells via western blot. The assay was carried out in the presence of 10% FBS or high percentage of human or mouse serum. Protocols of the western blot assay are described below.
MCF7 cells were grown in DMEM/F12 with 10% FBS and seeded at 24,000 cells per well in 100 μl into 96-well clear tissue culture plates. The following day, the cells were treated with PROTACs in a […] concentration curve with 100 nM being the top concentration and serial dilutions to make the other concentrations (30 nM, 10 nM. 3 nM, 1 nM, and 0.3 nM). At all concentrations, 0.01% DMSO is the final concentration in the well. The following day, the plates are aspirated, washed with 50 μl of cold PBS. The cells are lysed with 50 μl/well 4° C. Cell Lysis Buffer (Catalog #9803; Cell Signaling Technology, Danvers, MA) (20 mM Tris-HCL (pH 7.5), 150 mM NaCl, 1 mM Na2EDTA, 1 mM EGTA, 1% Triton, 2.5 mM sodium pyrophosphate, 1 mM B-glycerophosphate, 1 mM sodium vanadate, 1 μg/ml leupeptin). Lysates were clarified at 16,000× g for 10 minutes, and 2 μg of protein was subjected to SDS-PAGE analysis and followed by immunoblotting according to standard protocols. The antibodies used were ERα (Cell Signaling, Technologies Catalog #8644), and Tubulin (Sigma Catalog #T9026; St. Louis, MO). Detection reagents were Clarity Western ECL substrate (Bio-Rad Catalog 4170-5060; Hercules, CA).
Alternatively, MCF7 cells were grown in DMEM/F12 with 10% FBS and seeded at 24,000 cells per well in 500 μl in 24-well clear tissue culture plates. The following day, the cells were treated with PROTACs in a 5-point concentration curve (100 nM, 33 nM, 11 nM, 3.7 nM, and 1.2 nM) in the presence of 0.01% DMSO. After 72 hours, the wells are aspirated and washed with 500 μl of PBS. The cells are lysed with 100 μl/well 4° C. Cell Lysis Buffer (Catalog #9803; Cell Signaling Technology, Danvers, MA) (20 mM Tris-HCL (pH 7.5), 150 mM NaCl, 1 mM Na2EDTA, 1 mM EGTA, 1% Triton, 2.5 mM sodium pyrophosphate, 1 mM B-glycerophosphate, 1 mM sodium vanadate, 1 ug/ml leupeptin). Lysates were clarified at 16,000× g for 10 minutes, and 2 μg of protein was subjected to SDS-PAGE analysis and followed by immunoblotting according to standard protocols. The antibodies used were ERα (Cell Signaling Technologies Catalog #8644), and Tubulin (Sigma Catalog #T9026; St. Louis, MO). Detection reagents were Clarity Western ECL substrate (Bio-Rad Catalog 4170-5060; Hercules, CA).
3. Estrogen receptor-alpha (ERα) degradation assay using In-Cell Western™ Assay for Table 5
Degradation of ERα by claimed compounds were determined in MCF7 cells using an In-Cell Western™ assay. Briefly, MCF7 cells were plated in 96-well plates (2000 cells per well in 100 μl media) and incubated at 37° C. under an atmosphere of 5% CO2 in a humidified incubator overnight. One-hundred (100) μl of media containing test compound (at 2× concentration) was added to the appropriate wells to provide 11 serially decreasing concentrations (top final concentration, 1 μM then 3-fold less for the next 10 concentrations); a vehicle control (DMSO) was also added for each compound. For each experiment, all compounds were assayed in duplicate plates. Cells were then incubated for 3 or 5 days in the above-mentioned environment. The assay was terminated by removal of media, a single wash with ice-cold PBS and the addition of […] paraformaldehyde (PFA: 4% in PBS). After 15 minutes in PFA at room temperature, the cells were permeabilized in Tris-phosphate-buffered saline with Tween (0.1%) (TBST) supplemented with Triton X-100 (0.5%) for 15 minutes. Cells were then blocked in BSA (TBST with BSA, 3%) for one hour. […] The cells were incubated overnight at 4° C. […]

Compound | IC50 (estrogen receptor) | Dmax ([1]; 3 day incubation) | Dmax ([1]; 5 day incubation)
O=C1CCC(n2ncc(Oc3ccc(O[C@H]4CCN(CCOc5ccc([C@H]6c7ccc(O)cc7CC[C@H]6c6ccc(F)cc6)cc5)C4)nc3)cc2=O)C(=O)N1 (mixture of isomers) [PROTAC-93, rac-3-(4-((6-(((R)-1-(2-(4-((1R,2S)-2-(4-fluorophenyl)-6-hydroxy-1,2,3,4-tetrahydronaphthalen-1-yl)phenoxy)ethyl)pyrrolidin-3-yl)oxy)pyridin-3-yl)oxy)-6-oxopyridazin-1(6H)-yl)piperidine-2,6-dione] | 10 to 100 nM | ≤ 50% | –
O=C1CCC(n2ncc(Oc3ccc(O[C@@H]4CCN(CCOc5ccc([C@H]6c7ccc(O)cc7CC[C@H]6c6ccc(F)cc6)cc5)C4)nc3)cc2=O)C(=O)N1 (mixture of isomers) [PROTAC-97, rac-3-(4-((6-(((R)-1-(2-(4-((1S,2R)-2-(4-fluorophenyl)-6-hydroxy-1,2,3,4-tetrahydronaphthalen-1-yl)phenoxy)ethyl)pyrrolidin-3-yl)oxy)pyridin-3-yl)oxy)-6-oxopyridazin-1(6H)-yl)piperidine-2,6-dione] | 10 to 100 nM | ≤ 50% | –
O=C1CCC(n2ncc(Oc3ccc(O[C@H]4CCN(CCOc5ccc([C@@H]6c7ccc(O)cc7CC[C@@H]6c6ccc(F)cc6)cc5)C4)nc3)cc2=O)C(=O)N1 (mixture of isomers) [PROTAC-94, rac-3-(4-((6-(((R)-1-(2-(4-((1S,2R)-2-(4-fluorophenyl)-6-hydroxy-1,2,3,4-tetrahydronaphthalen-1-yl)phenoxy)ethyl)pyrrolidin-3-yl)oxy)pyridin-3-yl)oxy)-6-oxopyridazin-1(6H)-yl)piperidine-2,6-dione] | < 1 nM | ≤ 50% | –
CN(C(=O)c1ccc(N2CCN(CCCCCOc3ccc([C@@H]4c5ccc(O)cc5CC[C@@H]4c4ccccc4)cc3)CC2)cc1)C1CCC(=O)NC1=O (mixture of isomers) [PROTAC-90, rac-N-(2,6-dioxopiperidin-3-yl)-4-(4-(5-(4-((1R,2S)-6-hydroxy-2-phenyl-1,2,3,4-tetrahydronaphthalen-1-yl)phenoxy)pentyl)piperazin-1-yl)-N-methylbenzamide] | 1 to 10 nM | – | > 75%
O=C1CCC(NC(=O)c2ccc(N3CCN(CCCCCOc4ccc([C@@H]5c6ccc(O)cc6CC[C@@H]5c5ccccc5)cc4)CC3)cn2)C(=O)N1 (mixture of isomers) [PROTAC-91, rac-N-(2,6-dioxopiperidin-3-yl)-5-(4-(5-(4-((1R,2S)-6-hydroxy-2-phenyl-1,2,3,4-tetrahydronaphthalen-1-yl)phenoxy)pentyl)piperazin-1-yl)picolinamide] | 1 to 10 nM | – | > 75%
O=C1CCC(N2CC(c3ccc(N4CCN(CC5CCN(c6ccc([C@@H]7c8ccc(O)cc8CC[C@@H]7c7ccccc7)cc6)CC5)CC4)cc3)=CC2=O)C(=O)N1 (stereo partly drawn) [PROTAC-89, 3-[3-[4-[4-[[1-[4-[(1R,2S)-6-hydroxy-2-phenyl-tetralin-1-yl]phenyl]-4-piperidyl]methyl]piperazin-1-yl]phenyl]-5-oxo-2H-pyrrol-1-yl]piperidine-2,6-dione] | 1 to 10 nM | – | > 75%
O=C1CCC(n2ncc(Oc3ccc(CCCCOc4ccc([C@@H]5c6ccc(O)cc6CC[C@@H]5c5ccc(F)cc5)cc4)nc3)cc2=O)C(=O)N1 (mixture of isomers) [PROTAC-98, rac-3-(4-((6-(4-(4-((1R,2S)-2-(4-fluorophenyl)-6-hydroxy-1,2,3,4-tetrahydro-naphthalen-1-yl)phenoxy)butyl)pyridin-3-yl)oxy)-6-oxopyridazin-1(6H)-yl)piperidine-2,6-dione] | 1 to 10 nM | – | ≤ 50%
O=C1CCC(n2ncc(Oc3ccc(N4CCN(CCOc5ccc([C@@H]6c7ccc(O)cc7CC[C@@H]6c6ccc(F)cc6)cc5)CC4)nc3)cc2=O)C(=O)N1 (mixture of isomers) [PROTAC-96, rac-3-(4-((6-(4-(2-(4-((1R,2S)-2-(4-fluoro-phenyl)-6-hydroxy-1,2,3,4-tetrahydro-naphthalen-1-yl)phenoxy)ethyl)piperazin-1-yl)pyridin-3-yl)oxy)-6-oxopyridazin-1(6H)-yl)piperidine-2,6-dione] | < 1 nM | ≤ 50% | –
O=C1CCC(n2ncc(Oc3ccc(N4CCN(CCOc5ccc([C@H]6c7ccc(O)cc7CC[C@H]6c6ccc(F)cc6)cc5)CC4)nc3)cc2=O)C(=O)N1 (mixture of isomers) [PROTAC-95, rac-3-(4-((6-(4-(2-(4-((1R,2S)-2-(4-fluorophenyl)-6-hydroxy-1,2,3,4-tetrahydronaphthalen-1-yl)phenoxy)ethyl)piperazin-1-yl)pyridin-3-yl)oxy)-6-oxopyridazin-1(6H)-yl)piperidine-2,6-dione] | ≥ 100 nM | ≤ 50% | –

More lines, now with the values ahead:

IC50 (estrogen receptor) | Dmax ([1]; 3 day incubation) | Dmax ([1]; 5 day incubation) | Compound
1 to 10 nM | – | 50 to 75% | O=C1CCC(n2cnc(N3CCN(CCCCCOc4ccc([C@@H]5c6ccc(O)cc6CC[C@@H]5c5ccccc5)cc4)CC3)cc2=O)C(=O)N1 (mixture of isomers) [PROTAC-101, rac-3-(4-(4-(5-(4-((1R,2S)-6-hydroxy-2-phenyl-1,2,3,4-tetrahydronaphthalen-1-yl)phenoxy)pentyl)piperazin-1-yl)-6-oxopyrimidin-1(6H)-yl)piperidine-2,6-dione]
1 to 10 nM | – | 50 to 75% | O=C1CCC(n2ncc(N3CCN(CCCCCOc4ccc([C@@H]5c6ccc(O)cc6CC[C@@H]5c5ccccc5)cc4)CC3)cc2=O)C(=O)N1 (mixture of isomers) [PROTAC-100, rac-3-(4-(4-(5-(4-((1R,2S)-6-hydroxy-2-phenyl-1,2,3,4-tetrahydronaphthalen-1-yl)phenoxy)pentyl)piperazin-1-yl)-6-oxopyridazin-1(6H)-yl)piperidine-2,6-dione]
1 to 10 nM | – | > 75% | O=C1CCC(n2ncc(N3CCN(CC4CCN(c5ccc([C@@H]6c7ccc(O)cc7CC[C@@H]6c6ccccc6)cc5)CC4)CC3)cc2=O)C(=O)N1 (stereo partly drawn) [PROTAC-102, 3-[4-[4-[[1-[4-[(1R, 2 S)-6-hydroxy-2-phenyl-tetralin-1-yl]phenyl]-4-piperidyl]methyl]piperazin-1-yl]-6-oxo-pyridazin-1-yl]piperidine-2,6-dione]
< 1 nM | ≤ 50% | – | O=C1CCC(n2ncc(Oc3ccc(O[C@@H]4CCN(CCOc5ccc([C@@H]6c7ccc(O)cc7CC[C@@H]6c6ccc(F)cc6)cc5)C4)nc3)cc2=O)C(=O)N1 (stereo partly drawn) [PROTAC-103, 3-(4-((6-(((R)-1-(2-(4-((1R,2S)-2-(4-fluorophenyl)-6-hydroxy-1,2,3,4-tetrahydronaphthalen-1-yl)phenoxy)ethyl)pyrrolidin-3-yl)oxy)pyridin-3-yl)oxy)-6-oxopyridazin-1(6H)-yl)piperidine-2,6-dione]
10 to 100 nM | ≤ 50% | – | Cc1nc2c(NCCN3CCN(CCOc4ccc(Oc5c(-c6ccc(Br)cc6)sc6cc(O)ccc56)cc4)CC3)cccc2c(=O)n1C1CCC(=O)NC1=O (stereo not shown) [PROTAC-107]
